≈ marks a conversion by molar mass, not a printed value. Where two headings read alike, the source gives them in different places.
Columns and labels:
[1] = tested on: Mtb Praha 1; test: microbe, parasite or virus in culture; format: cell-based; conditions: Mycobacterium tuberculosis, read-out: MIC Mtb Praha 1
[2] = tested on: Mtb Praha 4; test: microbe, parasite or virus in culture; format: cell-based; conditions: Mycobacterium tuberculosis, read-out: MIC Mtb Praha 4
[3] = tested on: Mtb Praha 131; test: microbe, parasite or virus in culture; format: cell-based; conditions: Mycobacterium tuberculosis, read-out: MIC Mtb Praha 131
[4] = tested on: Mtb 234/2005; test: microbe, parasite or virus in culture; format: cell-based; conditions: Mycobacterium tuberculosis, read-out: MIC Mtb 234/2005
[5] = tested on: Mtb 9449/2007; test: microbe, parasite or virus in culture; format: cell-based; conditions: Mycobacterium tuberculosis, read-out: MIC Mtb 9449/2007
[6] = tested on: Mtb 7357/1998; test: microbe, parasite or virus in culture; format: cell-based; conditions: Mycobacterium tuberculosis, read-out: MIC Mtb 7357/1998
[7] = tested on: Mtb 8666/2010; test: microbe, parasite or virus in culture; format: cell-based; conditions: Mycobacterium tuberculosis, read-out: MIC Mtb 8666/2010
[8] = tested on: polyresistant Mtb strains; conditions: polyresistant Mtb strains (e.g., INH, STR, EMB); cited from earlier work

CCCCCCCCCCCCNc1nnc(-c2cc([N+](=O)[O-])cc([N+](=O)[O-])c2)s1 [Compound 5s, 5-(3,5-Dinitrophenyl)-N-dodecyl-1,3,4-thiadiazol-2-amine]
MIC ([1]; PRAHA1, 336 h): 1 µM (≈ 0.436 µg/mL)
MIC ([1]; PRAHA1, 504 h): 1 µM (≈ 0.436 µg/mL)
MIC ([2]; PRAHA4, 336 h): 1 µM (≈ 0.436 µg/mL)
MIC ([2]; PRAHA4, 504 h): 1 µM (≈ 0.436 µg/mL)
MIC ([3]; PRAHA131, 336 h): 1 µM (≈ 0.436 µg/mL)
MIC ([3]; PRAHA131, 504 h): 1 µM (≈ 0.436 µg/mL)
MIC ([4]; 234/2005, 336 h): 0.5 µM (≈ 0.218 µg/mL)
MIC ([4]; 234/2005, 504 h): 1 µM (≈ 0.436 µg/mL)
MIC ([5]; 9449/2007, 336 h): 1 µM (≈ 0.436 µg/mL)
MIC ([5]; 9449/2007, 504 h): 2 µM (≈ 0.871 µg/mL)
MIC ([6]; 7357/1998, 336 h): 0.5 µM (≈ 0.218 µg/mL)
MIC ([6]; 7357/1998, 504 h): 1 µM (≈ 0.436 µg/mL)
MIC ([7]; 8666/2010, 336 h): 0.5 µM (≈ 0.218 µg/mL)
MIC ([7]; 8666/2010, 504 h): 1 µM (≈ 0.436 µg/mL)

COc1ccc(CNc2nnc(-c3cc([N+](=O)[O-])cc([N+](=O)[O-])c3)o2)cc1 [Compound 7b, 5-(3,5-Dinitrophenyl)-N-(4-methoxybenzyl)-1,3,4-oxadiazol-2-amine]
MIC ([1]; PRAHA1, 336 h): ≤ 0.03 µM
MIC ([1]; PRAHA1, 504 h): ≤ 0.03 µM
MIC ([2]; PRAHA4, 336 h): ≤ 0.03 µM
MIC ([2]; PRAHA4, 504 h): ≤ 0.03 µM
MIC ([3]; PRAHA131, 336 h): ≤ 0.03 µM
MIC ([3]; PRAHA131, 504 h): ≤ 0.03 µM
MIC ([4]; 234/2005, 336 h): ≤ 0.03 µM
MIC ([4]; 234/2005, 504 h): 0.06 µM (≈ 0.0223 µg/mL)
MIC ([5]; 9449/2007, 336 h): ≤ 0.03 µM
MIC ([5]; 9449/2007, 504 h): ≤ 0.03 µM
MIC ([6]; 7357/1998, 336 h): ≤ 0.03 µM
MIC ([6]; 7357/1998, 504 h): ≤ 0.03 µM
MIC ([7]; 8666/2010, 336 h): ≤ 0.03 µM
MIC ([7]; 8666/2010, 504 h): ≤ 0.03 µM

O=[N+]([O-])c1cc(-c2nnc(NCc3ccc(Cl)cc3Cl)o2)cc([N+](=O)[O-])c1 [Compound 7d, N-(2,4-Dichlorobenzyl)-5-(3,5-dinitrophenyl)-1,3,4-oxadiazol-2-amine]
MIC ([1]; PRAHA1, 336 h): 0.125 µM (≈ 0.0513 µg/mL)
MIC ([1]; PRAHA1, 504 h): 0.125 µM (≈ 0.0513 µg/mL)
MIC ([2]; PRAHA4, 336 h): 0.06 µM (≈ 0.0246 µg/mL)
MIC ([2]; PRAHA4, 504 h): 0.125 µM (≈ 0.0513 µg/mL)
MIC ([3]; PRAHA131, 336 h): 0.125 µM (≈ 0.0513 µg/mL)
MIC ([3]; PRAHA131, 504 h): 0.125 µM (≈ 0.0513 µg/mL)
MIC ([4]; 234/2005, 336 h): 0.06 µM (≈ 0.0246 µg/mL)
MIC ([4]; 234/2005, 504 h): 0.125 µM (≈ 0.0513 µg/mL)
MIC ([5]; 9449/2007, 336 h): 0.06 µM (≈ 0.0246 µg/mL)
MIC ([5]; 9449/2007, 504 h): 0.125 µM (≈ 0.0513 µg/mL)
MIC ([6]; 7357/1998, 336 h): 0.125 µM (≈ 0.0513 µg/mL)
MIC ([6]; 7357/1998, 504 h): 0.125 µM (≈ 0.0513 µg/mL)
MIC ([7]; 8666/2010, 336 h): 0.06 µM (≈ 0.0246 µg/mL)
MIC ([7]; 8666/2010, 504 h): 0.125 µM (≈ 0.0513 µg/mL)

COc1ccc(CNc2nnc(-c3cc([N+](=O)[O-])cc([N+](=O)[O-])c3)s2)cc1 [Compound 8b, 5-(3,5-Dinitrophenyl)-N-(4-methoxybenzyl)-1,3,4-thiadiazol-2-amine]
MIC ([1]; PRAHA1, 336 h): ≤ 0.03 µM
MIC ([1]; PRAHA1, 504 h): ≤ 0.03 µM
MIC ([2]; PRAHA4, 336 h): ≤ 0.03 µM
MIC ([2]; PRAHA4, 504 h): ≤ 0.03 µM
MIC ([3]; PRAHA131, 336 h): ≤ 0.03 µM
MIC ([3]; PRAHA131, 504 h): ≤ 0.03 µM
MIC ([4]; 234/2005, 336 h): ≤ 0.03 µM
MIC ([4]; 234/2005, 504 h): ≤ 0.03 µM
MIC ([5]; 9449/2007, 336 h): ≤ 0.03 µM
MIC ([5]; 9449/2007, 504 h): ≤ 0.03 µM
MIC ([6]; 7357/1998, 336 h): ≤ 0.03 µM
MIC ([6]; 7357/1998, 504 h): ≤ 0.03 µM
MIC ([7]; 8666/2010, 336 h): ≤ 0.03 µM
MIC ([7]; 8666/2010, 504 h): ≤ 0.03 µM

CCCCCCCCCCCCCCCCCc1nnc(-c2ccncc2)o1 [III]
inhibitory concentration (MIC) [8]: ≥ 2.59 µM

CCCCCCCCCCCCCCCc1nnc(-c2ccncc2)o1 [II]
inhibitory concentration (MIC) [8]: ≥ 2.59 µM

Reference: publication PMC12121777 (PLOS One, 2025)
